Measured values as given in patent US11821905B2, “Biomarkers of vascular disease” (Arterez, Inc., priority 2015, dated 2023).

How the values were obtained:
Format in all cases: in vivo, mouse
Syndecan-1 (SDC1) = Syndecan-1 (SDC1) ELISA on plasma, murine model of atherosclerosis, Example 2; conditions: FIG. 13; mice treated PCB-77 and Porphyromonas gingivalis; high degree of variability
From the text: (§1) A novel model of atherosclerosis in mice was developed, using a high fat diet and administration of a polychlorinated biphenyl (3,3′,4,4′-Tetrachlorobiphenyl; PCB-77) that promotes both obesity and atherosclerosis and the additional oral administration of a bacteria responsible for tooth decay, Porphyromonas gingivalis 381 (ATCC 33277). The objective of this study was to examine the association of biomarkers with the murine model of atherosclerosis in mice treated with a strategy to protect and repair endothelial glycocalyx. Eighty-four (84) ten week old male C57/BI6 mice were obtained from Jackson Laboratories. Thirty-two mice were raised from 6 weeks on a regular diet and served as controls, and the remaining mice were raised on a 60% fat diet (D12451, DIO series diet, Opensource Diets). 3,3′,4,4′-Tetrachlorobiphenyl (PCB-77) was obtained from Neosyn Laboratories. The dry chemical was suspended in 15.22 ml of corn oil to deliver 200 μmol/kg in 0.2 ml by gavage per mouse.
(§2) Four test kits were used to analyze the collected plasma samples: Heparan Sulfate ELISA and Hyaluronan Synthase 1 (HAS-1) ELISA (Antibodies-Online), Total Plasminogen Activation Inhibitor-1 (PAI-1) ELISA (Molecular-Innovive) and Syndecan-1 (SDC1) ELISA (USCN, Houston, Tex.). […]

Heparan Sulfate (HS) = assay: Heparan Sulfate ELISA on plasma, murine model of atherosclerosis, Example 2; conditions: FIG. 11; mice treated PCB-77 and Porphyromonas gingivalis
From the text: as §1, §2

C57/BI6 mice [1] = assay: Histology disease score (Oil Red O, plaque, fibrous tissue, inflammation), Example 1; conditions: FIG. 9, gavage 150 μmol/kg, sacrifice days 10, 15, 20
Protocol: For the pilot study, 48 ten week old male C57/BI6 mice were obtained from Jackson Laboratories. Three mice were raised from 6 weeks on a regular diet and served as controls, and the remaining 45 were raised on a 60% fat diet (D12451, DIO series diet, Opensource Diets). For the bacterial dosage test, 16 ten week old male C57/BI6 mice were divided into 4 treatment groups and maintained on a normal diet.
3,3′,4,4′-Tetrachlorobiphenyl (PCB-77) was obtained from Neosyn Laboratories. 100 mg of the dry chemical was suspended in 15.22 ml of corn oil to deliver 150 μmol/kg in 0.2 ml per mouse. Porphyromonas gingivalis 381 (ATCC 33277) was obtained from ATCC. The bacteria were stored frozen prior to use. […] A microplate reader was used to measure the optical density at 600 nm to determine the concentration of bacteria. […]
The hearts were prepared as frozen sections. […] Multiple 10 μm sections at the level of the aortic sinus were analyzed for the presence of oil Red O lipid staining, plaque size, amount of fibrous tissue, and inflammation. The percentage of the lumen occupied by the first three features was calculated using Image Pro Plus. […] The level of inflammation in each section was scored on the following scale: 0=no inflammatory cells observed, 1=few macrophages with no giant cells, 2=foam cells present, 3=foam cells with cholesterol, 4=foam cells, giant cells, and cholesterol present. […]

[2] = tested on: Hyaluronan Synthase 1 (HAS-1); assay: Hyaluronan Synthase 1 (HAS-1) ELISA on plasma, murine model of atherosclerosis, Example 2; conditions: FIG. 10; high fat diet, PCB on Day 1 and 3, sacrificed at Day 4
From the text: as §1, §2

C57/BI6 mice [3] = assay: Pathology of arterial wall, murine model of atherosclerosis, Example 2; conditions: FIGS. 14A, 14B; positive control group (High fat diet, PCB)
From the text: as §1
The mice were sacrificed on days 4, 11, or 18 according to the experimental plan (three each from groups). The animals were anesthetized by intraperitoneal injection of 90 mg/kg Ketamine and 8 mg/kg Xylazine, and Isoflurane gas anesthesia. Blood was collected by retro-orbital bleeding or from the heart and mixed with 50 mg/ml heparin to prevent clotting. […]

## Clc1ccc(-c2ccc(Cl)c(Cl)c2)cc1Cl [PCB-77, 3,3′,4,4′-Tetrachlorobiphenyl]
Syndecan-1 (SDC1)
  SDC-1 level: elevation in SDC-1
Heparan Sulfate (HS)
  Heparan Sulfate (HS) level: elevation in HS
C57/BI6 mice [1]
  average disease scores for each group and time point (inflammation and plaque): most significant risk factor to producing inflammation and plaque
[2]
  HAS-1 levels: highest HAS-1 levels
C57/BI6 mice [3]
  pathology of arterial wall: presence of a pathology consistent with plaque
